viability, minimum viability and CC50 data for 21 molecules are collected here from PubChem BioAssay AID2286 (Southern Research Specialized Biocontainment Screening …, 2010).

SMILES strings stand for the structures. Activity calls are given as the source filed them.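 Rule for the calls: active = minimum cell viability of 80% or lower across the dose range, counted as toxic; inactive = minimum cell viability above 80%.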 Where only a bound is given, the exact number is not on record here.

A short description of test [1]: viability loss in fusion assay cells – cell-based, MAGI and MAGI-HeLa co-culture, cytotoxicity control for HIV-1 fusion inhibitor project, dose response (AID 2286).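 For all read-outs here: cells exposed to compound for at least 64 h before ATP readout.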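 For minimum viability: 100% = median of DMSO vehicle wells with no ATP signal meaning 0%.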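 For viability: 100% = median of DMSO vehicle wells with no ATP signal meaning 0%.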 The note with it: MAGI-CCR5 cells viability, CellTiter-Glo ATP luminescence; for minimum viability: measured here: MAGI minimum viability across doses.
Test [2] deals with MAGI-CCR5 cells viability, CellTiter-Glo ATP luminescence. The description is as above.
The mark [3] stands for this setting: MAGI-HeLa co-culture viability, at 50 µM, stronger effect = lower value.
Where [4] appears, read: measured here: MAGI + HeLa-R5-16 co-culture viability.
[5] abbreviates: at 3.13 µM, stronger effect = lower value.

On to `O=C(O)CCCCCN1C(=O)/C(=C\c2cn(-c3ccccc3)nc2-c2cccs2)SC1=S`, for which the viability in test [1] (setting [3]) was found to be 54.7%. This molecule also showed a minimum viability in test [1] (at 50 µM, stronger effect = lower value) of 47.2%. The CC50 in test [2] was 44.3 µM; in test [2] (setting [4]), more than 50 µM.
As for `O=C(Nc1ccccc1Cc1ccccc1)c1ccccc1NS(=O)(=O)c1ccc(Cl)s1`, the viability in test [1] (setting [3]) is 26.2%. Further, the minimum viability in test [1] (at 12.5 µM, stronger effect = lower value) was 15.3%. Further, the 50% cytotoxic concentration (CC50) in test [2] was 1.68 µM; in test [2] (setting [4]), 5.85 µM.
`COc1cc([N+](=O)[O-])cc(/C=N/NC(=O)c2cc(-c3ccccc3)nc3ccccc23)c1O`: the viability in test [1] (setting [3]) was 56.7%. Further, the minimum viability in test [1] (at 25 µM, stronger effect = lower value) was 53.9%. For the same molecule, the cytotoxic concentration (CC50) in test [2] (setting [4]) is more than 50 µM.
With `O=C(O)c1cccc2c1NC(c1cccc([N+](=O)[O-])c1)C1CC(Sc3ccccc3[N+](=O)[O-])C(Cl)C21` (stereo not given), in test [1] (setting [3]), the viability stood at 48.4%. The same molecule had a minimum viability in test [1] (at 50 µM, stronger effect = lower value) of 53.6%. The cytotoxic concentration (CC50) in test [2] (setting [4]) stood at 47.9 µM.
`O=S(=O)(Nc1nc2ccccc2nc1Nc1cccc(S(=O)(=O)N2CCCCC2)c1)c1ccccc1`: the viability in test [1] (setting [3]) came to 23.4%. The minimum viability in test [1] (at 50 µM, stronger effect = lower value) is 21.9%. Also, the half-maximal cytotoxic concentration (CC50) in test [2] was 9.47 µM; in test [2] (setting [4]), 18.8 µM.
As for `C=CC#CC[N+]1(CC#Cc2ccccc2)CCOCC1`, the viability in test [1] (setting [3]) is 70%. Besides, the minimum viability in test [1] (at 50 µM, stronger effect = lower value) is 76.2%. In test [2] (setting [4]), the CC50 is more than 50 µM.
In the case of `O=[N+]([O-])c1cc([N+](=O)[O-])c2oc(-c3ccccc3)c(Br)c2c1O`, the viability in test [1] (setting [3]) came out at 57.6%. Also, in test [1] (at 50 µM, stronger effect = lower value), the minimum viability is 34.5%. For the same molecule, the results for the CC50 in test [2] and in test [2] (setting [4]) were 22.5 µM and more than 50 µM, respectively.
Take `COc1ccc(C(=O)/C=C/c2ccc(OCc3ccccc3)cc2)cc1CSCC(=O)O`: the viability in test [1] (setting [3]) stood at 86.3%. Also, the minimum viability in test [1] (at 50 µM, stronger effect = lower value) is 42.6%. The CC50 in test [2] was 46 µM.
In the case of `COc1ccc(/C=C2/SC(=S)N(CC(=O)O)C2=O)cc1OCc1ccc(Cl)cc1`, the viability in test [1] (setting [3]) is 67%; in test [1] (at 50 µM (top of the series)) it was 104% (inactive). In addition, in test [1] (setting [5]), the minimum viability stood at 85.8%. For the same molecule, the CC50 in test [2] (setting [4]) is more than 50 µM.
`Cc1cc(Cl)ccc1OC(C)C(=O)Nc1ccc(C(=O)Nc2ccccc2C(=O)O)cc1` (stereo not given): the viability in test [1] (setting [3]) worked out at 63.6%. In test [1] (at 50 µM, stronger effect = lower value), this molecule yielded a minimum viability of 49.8%. Besides, the CC50 in test [2] was 48.8 µM; in test [2] (setting [4]) it was more than 50 µM.
Regarding `O=C1NC(=Nc2ccccc2Cl)S/C1=C\c1cccc([N+](=O)[O-])c1O`, the viability in test [1] (setting [3]) came to 73.6%. The molecule also came in with a minimum viability in test [1] (at 50 µM, stronger effect = lower value) of 72.6%. Moreover, in test [2] (setting [4]), the 50% cytotoxic concentration (CC50) is more than 50 µM.
`O=[N+]([O-])c1cc(Cl)cc(/C=N/NC(=S)Nc2ccc(S(=O)(=O)N3CCOCC3)cc2)c1O`: the viability is 65.6% in test [1] (setting [3]) and 98.8% (inactive) in test [1] (at 50 µM (top of the series)). The molecule also displayed a minimum viability in test [1] (setting [5]) of 89.3%. Moreover, in test [2] (setting [4]), the 50% cytotoxic concentration (CC50) is more than 50 µM.
Turning to `O=C(NC(=S)Nc1ccccc1C(=O)O)c1ccc(-c2ccc(Br)cc2)o1`, the viability in test [1] (setting [3]) is 59.6%. This molecule gave a minimum viability in test [1] (at 50 µM, stronger effect = lower value) of 77.9%. In addition, in test [2] (setting [4]), the CC50 is more than 50 µM.
Take `CC1(c2ccccc2)CC(C)(C)N2C(=O)/C(=C3\SC(=S)NC3=O)c3cccc1c32` (stereo not given): the viability in test [1] (setting [3]) came to 40.9%. In test [1] (at 50 µM, stronger effect = lower value), this molecule yielded a minimum viability of 22.5%. The CC50 in test [2] is 14.1 µM; in test [2] (setting [4]) it was 37 µM.
Take `CC(C(=O)Nc1ccc(O)c(C(=O)O)c1)N1C(=O)/C(=C/c2cccs2)SC1=S` (stereo not given): the viability in test [1] (setting [3]) stood at 66.1%. Besides, the minimum viability in test [1] (at 50 µM, stronger effect = lower value) was determined as 51.2%. Further, the CC50 in test [2] is 46.4 µM; in test [2] (setting [4]) it was more than 50 µM.
On to `COc1cc(/C=C2/SC(=S)N(Cc3ccccc3)C2=O)ccc1OCC(=O)O`, for which the viability in test [1] (setting [3]) is 79%. In test [1] (at 50 µM, stronger effect = lower value), this molecule had a minimum viability of 4.94%. The cytotoxic concentration (CC50) in test [2] is 30.2 µM; in test [2] (setting [4]), more than 50 µM.
Regarding `COc1cc([N+](=O)[O-])cc(/C=C2/SC(=S)N(Cc3ccccc3)C2=O)c1O`, in test [1] (setting [3]), the viability came to 16.4%. Besides, the minimum viability in test [1] (at 25 µM, stronger effect = lower value) came out at 5.81%. The figures for the CC50 in test [2] and in test [2] (setting [4]) were 8.44 µM and 29.2 µM, respectively.
In the case of `O=C(O)c1ccc(N/N=C/c2ccc(-c3cccc(Cl)c3)o2)cc1`, in test [1] (setting [3]), the viability amounted to 10.1%. In test [1] (at 50 µM, stronger effect = lower value), this molecule yielded a minimum viability of 21.6%. The CC50 in test [2] is 10.3 µM; in test [2] (setting [4]), 2.83 µM.
Consider `CCS(=O)(=O)C1=NN2C(=N)/C(=C\c3ccc(OCCOc4cccc(OC)c4)c(OC)c3)C(=O)N=C2S1`, for which the viability in test [1] (setting [3]) is 50%; in test [1] (at 50 µM (top of the series)), 83.7% (inactive). For the same molecule, the minimum viability in test [1] (at 50 µM, stronger effect = lower value) was determined as 83.7%. Moreover, in test [2] (setting [4]), the cytotoxic concentration (CC50) was determined as 40.1 µM.
Take `CCn1nc([N+](=O)[O-])c(C(C#N)c2nc3cc(C(F)(F)F)ccc3s2)c(Cl)c1=O` (stereo not given): in test [1] (at 50 µM, stronger effect = lower value), the minimum viability was determined as 22.2%. In test [2], the CC50 was 27.8 µM.
Regarding `O=C(O)CCn1cc(/C=C/C(=O)c2ccc(Cl)cc2)c(-c2cccc(Br)c2)n1`, the viability in test [1] (setting [3]) worked out at 87%. The same molecule registered a minimum viability in test [1] (at 50 µM, stronger effect = lower value) of 40.5%. Besides, the cytotoxic concentration (CC50) in test [2] is 43.1 µM.

Broadly, the viability is a read-out of living cells in per cent, often relative to untreated cells. One may read the CC50 as the concentration giving 50% cytotoxicity.
